Data: US7579019B2, “Pharmaceutical carrier device suitable for delivery of pharmaceutical compounds to mucosal surfaces” (priority 1997, dated 2009)

Test: systemic availability study in dogs, testosterone, RIA method (Example 40)
Type: in vivo
Conditions: female, bred hound, dog, plasma, other: buccal (film disc applied to the buccal mucosa), 0.8 mg per disc, mean of three dogs, buccal ½ inch disc of Example 39 film, 0.8 mg testosterone per disc, read-out: systemic plasma level, Mean
Description: The films obtained via Examples 38 and 39 are die-cut in ½ inch diameter discs to be characterized and to be used for a systemic availability study in three dogs (20-25 kg spayed female bred hounds). One disc of the film to be evaluated is applied to the inside of the mouth on the buccal mucosa. A slight pressure is applied for 10 seconds. Then, the oral cavity is examined to assure adherence of the film to the mucosa and over the course of the study, to monitor the erosion of the discs. Using an indwelling jugular catheter, blood samples are collected at specific intervals. The serum is characterized by an ELISA assay in the case of albuterol sulfate and by an RIA method for the testosterone study.
After application of ½ inch diameter discs, systemic plasma levels obtained at different intervals are given in nanograms per milliliter for the mean of the three dogs.

C[C@]12CC[C@H]3[C@@H](CCC4=CC(=O)CC[C@@]43C)[C@@H]1CC[C@@H]2O [testosterone]
concentration at 0 min (time 0 minutes): 0 ng/mL
concentration at 5 min (time 5 minutes): 2.21 ng/mL
concentration at 10 min (time 10 minutes): 4.68 ng/mL
concentration at 15 min (time 15 minutes): 3.81 ng/mL
concentration at 30 min (time 30 minutes): 2.87 ng/mL
concentration at 60 min (time 60 minutes): 3.73 ng/mL
concentration at 90 min (time 90 minutes): 4.82 ng/mL
concentration at 120 min (time 120 minutes): 7.14 ng/mL
concentration at 150 min (time 150 minutes): 3.2 ng/mL
concentration at 180 min (time 180 minutes): 0.62 ng/mL
concentration at 240 min (time 240 minutes): 0.18 ng/mL
concentration at 360 min (time 360 minutes): 0.12 ng/mL
concentration at 480 min (time 480 minutes): 0.02 ng/mL
concentration at 720 min (time 720 minutes): 0.01 ng/mL
